This is an account of results in article PMC5966403 (2018).

Test [1] deals with TSL2 (RNA, hairpin) AUUCCUUAAAUUAAGGAGU
The test can be described thus: TO-PRO-1 fluorescence displacement. As to conditions: Na+ (185 mM NaCl, 8 mM Na2HPO4); pH 7, 0.1 mM EDTA, 40 μg/mL BSA; 0.5 μM RNA; TO-PRO-1 (1 μM) displaced.

Test [2] has the same test system. The test can be described thus: RiboGreen fluorescence displacement. As to conditions: Na+ (185 mM NaCl, 8 mM Na2HPO4); RiboGreen (300 nM) displaced.
The test system is the same in test [3]. Kind of test: NMR (TOCSY) chemical-shift perturbation. As to conditions: 40–50 μM RNA, 20 equivalents PK4C9; shifts at U2 and U19.

A word on the EC50: it is the midpoint of the concentration-response curve. Read a low EC50 as higher potency in that assay. For `O=C(c1cnc(C(=O)c2c[nH]c3ccccc23)[nH]1)c1c[nH]c2ccccc12`, the EC50 in test [1] is 85.9 µM.

For `N=C(N)c1ccc(Nc2ccc(-c3cc4ccc(C(=N)N)cc4[nH]3)cc2)cc1`, in test [1], the concentration for a half-maximal effect (EC50) stood at 4.5 µM. Against the preceding compound, the EC50 is about 19-fold lower. As to `O=C(c1cnc(C(=O)c2c[nH]c3cc(O)ccc23)[nH]1)c1c[nH]c2ccccc12`, the binding entry in test [2] and in test [3] was “yes” throughout. This compound also gave a 50% effective concentration (EC50) in test [1] of 16 µM.
